From patent US20240254135A1, “POLYPHENOL COMPOUNDS” (Epirium Bio Inc., priority 2022, published 2024)

Columns and labels:
[1] = biological target: T1, mitochondrial ATP synthase (Mus musculus, UniProt P56480+Q03265); assay: ATP synthesis (oxygen consumption, Seahorse XF96) in fresh heart mitochondria; type: biochemical
T1 construct: from tissue; host or cells: mouse heart, isolated mitochondria (fresh or frozen)
Description: To assess whether the fraction of synthetic and reverse hydrolytic activities of mitochondrial ATP synthase can be measured in the same preparation, a protocol was developed to monitor changes in oxygen consumption and proton release in response to changes in mitochondrial ATP synthase activity. The proton released and the concomitant changes in the pH can be monitored using the ECAR (extracellular acidification) channel in the Agilent Seahorse XF analyzer using isolated mitochondria, to ensure that the changes in pH cannot be attributed to glycolysis or other contributors to ECAR.
Mice were anesthetized with isoflurane followed by a cervical dislocation, and the heart was immediately removed and placed in ice cold relaxation buffer (5 mM sodium pyrophosphate, 100 mM KCl, 5 mM EGTA, 5 mM HEPES; pH 7.4). The heart was squeezed with tweezers to remove blood, minced with scissors, and then placed in a glass-glass Dounce homogenizer with 3 mL of HES homogenization buffer (250 mM sucrose, 5 mM HEPES, 1 mM EDTA; pH to 7.2, adjusted with KOH). The heart tissue was homogenized first with the loose pestle and followed by the tight pestle. The homogenized tissue was placed in a pre-chilled 15 ml conical tube and centrifuged at 900×g (4° C.) for 10 minutes (min). The supernatant was removed, placed in a new tube and centrifuged again at 900×g for 10 min. The supernatant was then transferred to 2 mL microcentrifuge tubes and centrifuged at 10,000×g (4° C.) for 10 min. The mitochondrial pellets were re-suspended in ice cold HES buffer and mitochondrial protein was measured with a BCA assay (Pierce). The concentrated mitochondrial pellet was stored on ice.
Heart mitochondria (0.75-1.5 μg) were loaded into a Seahorse XF96 microplate in 20 μL of MAS (70 mM Sucrose, 220 mM Mannitol, 5 mM KH2PO4, 5 mM MgCl2, 1 mM EGTA, 2 mM HEPES; pH 7.2) plus 1% free fatty acid BSA containing substrates. The loaded plate was centrifuged at 2,000×g for 5 min at 4° C. […]
Oxygen consumption was measured in isolated fresh intact mitochondria from mouse heart, as oxygen consumption is linked to maximal ATP synthesis and proton release when mitochondria are respiring either in the presence of substrates and ADP (ATP synthesizing mitochondria or state 3) or in the presence of substrates but not ADP (state 4). […]
OCR and ECAR were measured in a Seahorse XF96 analyzer under basal conditions as well as after injection of 2 μM oligomycin, two sequential additions of 1.5 μM FCCP, followed by 1 μM rotenone with 2 μM antimycin A. Respiratory parameters were calculated according to standard protocols, and all rates were corrected for non-mitochondrial respiration/background signal by subtracting the oxygen consumption rate insensitive to rotenone plus antimycin A.

[2] = biological target: T1, mitochondrial ATP synthase; assay: Maximal ATP hydrolysis capacity in frozen heart mitochondria; type: biochemical; conditions: frozen mitochondria (FIGS. 3 and 4)
Method: ATP hydrolysis capacity or state 4 acidification was measured using Seahorse XF96 as described in Divakaruni et al. (2018) Anal Biochem 552:60-65 and Acin-Perez et al. (2021) Life 11(9):949, in MAS (70 mM Sucrose, 220 mM Mannitol, 5 mM KH2PO4, 5 mM MgCl2, 1 mM EGTA, 2 mM HEPES; pH 7.2). Plates were loaded with 0.75-1.5 μg of mouse heart mitochondria, or 25 μg of cell lysate. Cell lysates were prepared by subjecting the samples to 4 cycles of free thaw (liquid nitrogen—37° C. water bath) before measuring protein concentration. When assessing compounds effect on respirometry, the compounds were added in MAS after sample centrifugation. Initial respiration of the samples was sustained by the addition of 5 mM succinate+2 μM rotenone in the MAS after centrifugation. Injections were performed at the following final concentration in the well: Antimycin A (2 μM), oligomycin (5 μM), FCCP (1 μM), ATP (20 mM). To assess maximal ATP concentration, ATP was injected consecutively.
An additional assay was developed to determine the maximal ATP hydrolysis capacity in frozen mitochondria. Maximal ATP hydrolytic capacity was assessed in frozen heart mitochondria where mitochondrial respiration is inhibited by Antimycin A and maximal ATP hydrolysis is driven by co-injection of FCCP and ATP, followed by inhibition in the presence of oligomycin.

change in ATP synthesis ([1]; Complex II substrates, fresh mitochondria): no change | change in ATP synthesis ([1]; fresh heart mitochondria (FIG. 1, FIG. 2)): no change | decrease in hydrolysis [2]: 25%
SMILES: Oc1ccc2c(c1)OC(c1ccc(O)c(C(F)(F)F)c1)C(O)C2 (single isomer, unassigned) [Compound 77b, 2-(4-hydroxy-3-(trifluoromethyl)phenyl)chromane-3,7-diol]
change in ATP synthesis ([1]; Complex I substrates, fresh mitochondria): no change
